Measurements as given in patent publication US11352350B2, “IRAK degraders and uses thereof” (Kymera Therapeutics, Inc., priority 2018, dated 2022).

Assays:
IRAK4 [1] = target: T1, IRAK4 (Homo sapiens (Human), UniProt Q9NWZ3); test: IRAK4 MSD degradation in OCI-LY10; assay type: cell-based
Outline: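 Remaining IRAK4 quantified by electrochemiluminescent MSD sandwich assay with two anti-IRAK4 antibodies. Compounds were dosed as 8 concentrations in 1:3 steps from a 1 to 10 μM final top on OCI-LY10 cells, incubated 4 to 24 h at 37° C. under 5% CO2. DC50 fitted with a three-parameter logistic curve.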

OCI-LY10 = test: CTG Cell Viability Assay - OCI-LY10; assay type: cell-based, human; details: Homo sapiens, OCI-Ly10, 96 h, OCI-LY10, 4 days; read-out: CTG Cell Viability Assay - OCI-LY10: Average external-IC50
Outline: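 Viability read by CellTiter-Glo luminescence after 4 days at 37° C under 5% CO2 with compound (top 10 μM final, 1:3 steps, 9 doses, DMSO 0.2%). Three-parameter logistic fit gave IC50.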

IRAK4 [2] = target: T1, IRAK4; test: IRAK4 degradation in human whole blood monocyte - flow cytometry; assay type: cell-based; details: read-out: IRAK4 degradation in whole blood monocyte-Flow cytometry: Average external Abs IC50
Protocol: (§1) Human whole blood IRAK4 degradation flow assay. Whole blood was collected in heparinized tubes and plated on the same day as draw (day 0). Whole blood was aliquoted into deep well plates. Compound plates were prepared and a 10 point, 5-fold dilution was performed with a final DMSO concentration of 0.1%. Compound was added to whole blood deep well plate, sealed and incubated at 37° C., 5% CO2 for 20 hours (for 4 hour treatment, compounds were prepared and added the following day). Following the treatment incubation period (day 1), BD lyse fix (BD #558049) was added to the whole blood plate, placed on plate shaker for 30 seconds and incubated for 10 mins at room temperature. Whole blood was then spun down and washed two times with PBS/0.5% BSA, aspirated to pellet and placed into −80° C. freezer until further processing for flow. On the flow run day, whole blood plates were thawed and samples were transferred to PCR plates. The pre-perm staining cocktail (CD3 Ax488/CD8 BUV805/CD14 BUV395/CD16/56 BV711/CD19 BV785) was added to samples and incubated for 30 minutes at room temperature. Samples were washed two times and permeabilized with Methanol for 10 minutes at 4° C. Samples were washed two times and the post-perm staining cocktail (CD4 PE/IRAK4 Ax647 BD #560315) was added and incubated for 30 minutes at room temperature. Samples were washed two times with PBS/BSA and run on a BD LSRFortessa. Mononuclear cells are gated by SSCH/FSCH and single cells. Monocytes are then gated through CD14 positive gate and lymphocytes are gated through CD14 negative gate. To determine absolute DC50 and max degradation values, MFI values were normalized to DMSO max and 20 hour 10 μM min control. Twenty hour dose curves were calculated using a 4 parameter logistic regression curve fit, no constraints (Top doses were removed if hook effects were observed and the bottom was constrained to 0).

IRAK4 [3] = target: T1, IRAK4; test: IRAK4 degradation in human whole blood lymphocyte - flow cytometry; assay type: cell-based; details: read-out: IRAK4 degradation in whole blood lymphocyte-Flow cytometry: Average external Abs IC50
Protocol: as §1

TNFα = test: Human whole blood LPS TNFα assay; assay type: cell-based; details: 20 h pretreatment, LPS 5 h, read-out: IRAK4 human whole blood LPS TNFa inhibition: Average external-IC50
Protocol: Human Whole blood LPS TNFα assay. Whole blood was collected fresh and plated same day into 96 well plates at 180 μL per well. Compound plates were prepared in DMSO as 8-point dose curves in duplicate, starting dose 2 μM, 5-fold. Compounds are added 20 μL into blood for final 200 μL per well. Compound and cells were incubated at 37° C., 5% CO2 for 20 hours. After twenty hours of pretreatment with the compounds, LPS (01 1 1:B4) (Sigma #L2637) was added at 100 ng/ml final concentration and blood incubated an additional five hours at 37° C., 5% CO2. Following assay completion, whole blood plates were spun down at 2000 rpm for 15 minutes at 4° C. 50 μL of plasma was carefully removed and placed into a new 96 well Costar (#3879) plate and stored at −80° C. until further analysis. Meso scale Discovery (MSD) human V-plex assays were used to measure cytokine levels. On day of cytokine analysis, plasma samples were thawed, diluted with V-plex diluent #2, and directly to MSD plates. Assay was further completed per standard manufacturer's protocol. Cytokine data was normalized to LPS stimulated and unstimulated controls. Prism Graphpad was used to generate IC50 using 4 parameter logistic regression curve, free-fit.

IRAK4 [4] = target: T1, IRAK4; test: hPBMC IRAK4 degradation flow assay; assay type: cell-based; details: hPBMC monocyte
Outline: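 Thawed human PBMCs treated with 10-point, 5-fold compound dilutions (0.1% DMSO) at 37° C. for 20 hours or 4 hours. IRAK4 measured by flow MFI in CD14+ monocytes and CD14− lymphocytes, normalized to DMSO and 10 μM 20-hour control; DC50 and max degradation from 4-parameter logistic fit.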

IL-6 = IL-6 secretion in hPBMC using R848 stimulation; assay type: cell-based, human; details: hPBMC, R848 as stim, t = 20 h
[5] = OCI-LY10, 4 hrs, MSD, read-out: IRAK4 MSD degradation in OCI-LY10 at 4 hrs: Average external-Abs DC50
[6] = 20 hr, flow assay, read-out: IRAK4 degradation in hPBMC monocyte at 20 hr: Average external Abs DC50
[7] = OCI-LY10, 4 hrs, read-out: IRAK4 MSD degradation in OCI-LY10 at 4 hrs: DC50
[8] = 20 hrs, read-out: IRAK4 degradation in hPBMC monocyte: DC50

T1 sequence (Q9NWZ3 whole entry): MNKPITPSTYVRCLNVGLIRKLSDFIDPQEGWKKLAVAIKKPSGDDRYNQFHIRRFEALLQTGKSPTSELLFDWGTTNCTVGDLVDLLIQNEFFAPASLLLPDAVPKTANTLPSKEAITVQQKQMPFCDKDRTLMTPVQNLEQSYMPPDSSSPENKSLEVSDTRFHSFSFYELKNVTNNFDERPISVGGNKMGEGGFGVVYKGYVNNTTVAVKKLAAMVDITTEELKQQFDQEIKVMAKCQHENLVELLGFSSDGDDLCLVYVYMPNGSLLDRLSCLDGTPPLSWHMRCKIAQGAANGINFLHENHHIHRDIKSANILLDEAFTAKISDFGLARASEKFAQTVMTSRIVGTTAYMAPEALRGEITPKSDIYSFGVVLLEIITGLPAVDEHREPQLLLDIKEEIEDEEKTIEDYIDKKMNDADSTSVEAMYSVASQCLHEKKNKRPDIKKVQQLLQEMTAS

Compound | DC50 (IRAK4 [1]; [5]) | IC50 (OCI-LY10) | DC50 (IRAK4 [2]) | DC50 (IRAK4 [3]) | IC50 (TNFα) | IC50 (IRAK4 [2]) | DC50 (IRAK4 [1]; OCI-LY10, 24 hrs, MSD, read-out: IRAK4 MSD degradation in OCI-LY10 at 24 hrs: Average external-Abs DC50) | DC50 (IRAK4 [4]; [6]) | IC50 (IL-6; Homo sapiens, 20 h) | DC50 (IRAK4 [1]; [7]) | DC50 (IRAK4 [4]; [8]) | IC50 (IL-6)
O=C1CCC(n2c3ccccc3c3c(CCCOCCOCCNC[C@H]4CC[C@H](n5cc(NC(=O)c6coc(-c7ccnc(NCC8CC8)c7)n6)c(C(F)F)n5)CC4)ccnc32)C(=O)N1 (stereo partly shown) [I-92] | 10 to 100 nM | 100 to 500 nM | 100 to 500 nM | 500 to 1000 nM | – | – | – | – | – | – | – | –
NC(=O)c1nn([C@H]2CC[C@H](CNCCCOCCCc3cccc4c3oc(=O)n4C3CCC(=O)NC3=O)CC2)cc1NC(=O)c1coc(-c2ccnc(NCC(F)(F)F)c2)n1 (stereo partly shown) [I-12] | 10 to 100 nM | 500 to 1000 nM | 500 to 1000 nM | 100 to 500 nM | 500 to 1000 nM | – | – | – | – | – | – | –
CN(CC1CCN(CCC#Cc2ccc3c(c2)n(C)c(=O)n3C2CCC(=O)NC2=O)CC1)C(=O)[C@H]1CC[C@H](n2cc(NC(=O)c3coc(-c4ccnc(NCC5CC5)c4)n3)c(C(F)F)n2)CC1 (stereo partly shown) [I-27] | < 10 nM | < 50 nM | – | < 50 nM | 100 to 500 nM | < 50 nM | – | – | – | – | – | –
O=C1CCC(n2c(=O)oc3c(CCCOCCNC(=O)[C@H]4CC[C@H](n5cc(NC(=O)c6coc(-c7ccnc(NCC8CC8)c7)n6)c(C(F)F)n5)CC4)cccc32)C(=O)N1 (stereo partly shown) [I-5] | < 10 nM | < 50 nM | 100 to 500 nM | 100 to 500 nM | > 1000 nM | – | – | – | – | – | – | –
Cn1c(=O)n(C2CCC(=O)NC2=O)c2ccc(CCCCOCCCCNC[C@H]3CC[C@H](n4cc(NC(=O)c5coc(-c6ccnc(NCC(F)(F)F)c6)n5)c(C(N)=O)n4)CC3)cc21 (stereo partly shown) [I-9] | < 10 nM | > 1000 nM | – | 50 to 100 nM | > 1000 nM | < 50 nM | – | – | – | – | – | –
CN(C[C@H]1CN(CCCc2ccc3c(c2)n(C)c(=O)n3C2CCC(=O)NC2=O)CCO1)C(=O)[C@H]1CC[C@H](n2cc(NC(=O)c3coc(-c4ccnc(NCC5CC5)c4)n3)c(C(F)F)n2)CC1 (stereo partly shown) [I-18] | < 10 nM | 50 to 100 nM | – | 100 to 500 nM | 100 to 500 nM | < 50 nM | – | – | – | – | – | –
Cn1c(=O)n(C2CCC(=O)NC2=O)c2cccc(CCCOCCOCCNC(=O)[C@H]3CC[C@H](n4cc(NC(=O)c5coc(-c6ccnc(NCC7CC7)c6)n5)c(C(F)F)n4)CC3)c21 (stereo partly shown) [I-1] | < 10 nM | 50 to 100 nM | 100 to 500 nM | 100 to 500 nM | – | – | 10 to 100 nM | – | – | – | – | –
O=C1CCC(n2c(=O)oc3cc(CCCOCCOCCNC[C@H]4CC[C@H](n5cc(NC(=O)c6coc(-c7ccnc(NCC8CC8)c7)n6)c(C(F)F)n5)CC4)ccc32)C(=O)N1 (stereo partly shown) [I-3] | < 10 nM | > 1000 nM | – | < 50 nM | – | < 50 nM | – | – | – | – | – | –
Cn1c(=O)n(C2CCC(=O)NC2=O)c2cccc(CCC(=O)C3CC4(CCN(C[C@H]5CC[C@H](n6cc(NC(=O)c7cnn8ccc(N9C[C@H]%10C[C@@H]9CO%10)nc78)c(C(F)F)n6)CC5)CC4)C3)c21 (stereo partly shown) [I-415] | < 10 nM | > 1000 nM | – | – | – | – | – | < 10 nM | < 1 nM | – | – | –
Cn1c(=O)n(C2CCC(=O)NC2=O)c2cccc(C#CCCCNC[C@H]3CC[C@H](n4cc(NC(=O)c5cnn6ccc(N7C[C@H]8C[C@@H]7CO8)nc56)c(C(F)F)n4)CC3)c21 (stereo partly drawn) [I-518, N-[3-(difluoromethyl)-1-[4-[[5-[1-(2,6-dioxo-3-piperidyl)-3-methyl-2-oxo-benzimidazol-4-yl]pent-4-ynylamino]methyl]cyclohexyl]pyrazol-4-yl]-5-[(1R)-2-oxa-5-azabicyclo[2.2.1]heptan-5-yl]pyrazolo[1,5-a]pyrimidine-3-carboxamide] | – | > 1000 nM | – | – | – | – | – | – | 1 to 10 nM | 10 to 100 nM | < 10 nM | –
Cc1ccc(-c2nn([C@H]3CC[C@H](C(=O)N4CCC5(CC4)CN(CCCc4cccc6c4n(C)c(=O)n6C4CCC(=O)NC4=O)C5)CC3)cc2NC(=O)c2cnn3cccnc23)nc1 (stereo partly shown) [I-499] | – | > 1000 nM | – | – | – | – | – | – | 1 to 10 nM | < 10 nM | < 10 nM | –
CC(C)c1nn([C@H]2CC[C@H](CN(C)C[C@@H]3CN(CCCc4ccc5c(c4)n(C)c(=O)n5C4CCC(=O)NC4=O)CCO3)CC2)cc1NC(=O)c1coc(-c2ccnc(NCC3CC3)c2)n1 (stereo partly drawn) [I-94, 2-[2-(Cyclopropylmethylamino)-4-pyridyl]-N-[1-[4-[[[(2R)-4-[3-[1-(2,6-dioxo-3-piperidyl)-3-methyl-2-oxo-benzimidazol-5-yl]propyl]morpholin-2-yl]methyl-methyl-amino]methyl]cyclohexyl]-3-isopropyl-pyrazol-4-yl]oxazole-4-carboxamide] | – | – | 100 to 500 nM | 100 to 500 nM | – | – | – | – | – | – | – | –
Cn1c(=O)n(C2CCC(=O)NC2=O)c2cccc(CCC3CCN(C[C@H]4CC[C@H](n5cc(NC(=O)c6cnn7ccc(N8C[C@H]9C[C@@H]8CO9)nc67)c(C(F)F)n5)CC4)CC3)c21 (stereo partly shown) [I-487] | – | > 1000 nM | – | – | – | – | – | – | < 1 nM | 10 to 100 nM | < 10 nM | –
CN(CCCOCCCc1cccc2c1n(C)c(=O)n2C1CCC(=O)NC1=O)C[C@H]1CC[C@H](n2cc(NC(=O)c3cnn4ccc(N5CCCCC5)nc34)c(C(F)F)n2)CC1 (stereo partly shown) [I-419] | 10 to 100 nM | > 1000 nM | – | – | – | – | – | < 10 nM | 1 to 10 nM | – | – | –
Cn1c(=O)n(C2CCC(=O)NC2=O)c2cccc(CC[C@@H]3CN(C[C@H]4CC[C@H](C5N=C(NC(=O)c6cnn7ccc(N8CCCOCC8)nc67)C(C(F)F)=N5)CC4)CCO3)c21 (stereo partly shown) [I-514] | – | > 1000 nM | – | – | – | – | – | – | < 1 nM | < 10 nM | < 10 nM | –
Cn1c(=O)n(C2CCC(=O)NC2=O)c2cccc(CCC3CCN(c4ccc(CN5CCC(n6cc(NC(=O)c7cnn8ccc(N9C[C@H]%10C[C@@H]9CO%10)nc78)c(C(F)F)n6)CC5)cc4)CC3)c21 (stereo partly shown) [I-517] | – | > 1000 nM | – | – | – | – | – | – | 1 to 10 nM | 10 to 100 nM | < 10 nM | –
Cn1c(=O)n(C2CCC(=O)NC2=O)c2cccc(CCCN3CCOC4(CCN(C[C@H]5CC[C@H](n6cc(NC(=O)c7cnn8ccc(N9C[C@H]%10C[C@@H]9CO%10)nc78)c(C(F)F)n6)CC5)CC4)C3)c21 (stereo partly shown) [I-450] | – | > 1000 nM | – | – | – | – | – | – | – | 10 to 100 nM | < 10 nM | 1 to 10 nM
Cn1c(=O)n(C2CCC(=O)NC2=O)c2cccc(C#CCC3CCN(C[C@H]4CC[C@H](C5N=C(NC(=O)c6cnn7ccc(N8CCOC(C)(C)C8)cc67)C(C(F)F)=N5)CC4)CC3)c21 (stereo partly shown) [I-532] | – | > 1000 nM | – | – | – | – | – | – | 1 to 10 nM | 10 to 100 nM | 10 to 100 nM | –
